Measurements published in patent publication US5952307A, “Basic α-aminoalkylphosphonate derivatives” (priority 1997, dated 1999).

Legend:
Type in all cases: biochemical
human granzyme A = molecular target: T1, human granzyme A (Homo sapiens, UniProt P12544); experiment: Inactivation rate of human granzyme A, incubation method; details: Table I; 0.1M Hepes, 0.01M CaCl2 pH 7.5, 25° C., 7.6% DMSO, substrate Z--Arg--SBzl
T1 sequence (P12544 29-262): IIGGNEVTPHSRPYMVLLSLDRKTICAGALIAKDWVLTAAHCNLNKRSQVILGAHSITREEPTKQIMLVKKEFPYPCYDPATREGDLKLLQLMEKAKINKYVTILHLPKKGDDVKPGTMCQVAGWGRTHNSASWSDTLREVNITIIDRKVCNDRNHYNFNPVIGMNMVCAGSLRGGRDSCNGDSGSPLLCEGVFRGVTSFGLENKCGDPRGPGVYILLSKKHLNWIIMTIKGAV
Method in brief: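 Inhibitor in DMSO added to enzyme (0.01-2.3 μM) in 0.1 M HEPES, 0.01 M CaCl2, pH 7.5, 25° C (DMSO 7.6% for granzyme A, 7.1% for granzyme K); residual activity on Z-Arg-SBzl with DTNB read at intervals. Kobs from ln vt/vo vs time plots.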

mast cell tryptase = mast cell tryptase (Homo sapiens, UniProt Q15661); experiment: Inactivation rate of mast cell tryptase, incubation method; details: for kobsd /[I] mast cell tryptase: 0.1M Hepes, 10% glycerol, 10 mM heparin, pH 7.5, 25° C., 7.1% DMSO, NI = no inhibition after 25 min of incubation; for kobs /[I] mast cell tryptase: 0.07 μM tryptase, 20-66 μM inhibitor, Hepes pH 7.5, heparin, 9% glycerol, 8% DMSO, 25° C., NI = no inhibition
Method in brief: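 Incubation method at 25 °C: 0.07 μM tryptase with 20–66 μM inhibitor in Hepes pH 7.5 containing heparin, glycerol and DMSO. Aliquots were withdrawn at intervals for residual activity on Z-Arg-SBzl or Z-Lys-SBzl with DTNB. Pseudo-first-order kobs came from ln(vt/v0) versus time.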

rat granzyme A = experiment: Inactivation rate of rat granzyme A, incubation method; details: Table I; 0.1M Hepes, 0.01M CaCl2 pH 7.5, 25° C., 7.6% DMSO, substrate Z--Arg--SBzl
Procedure: (§1) Inactivation rates of serine proteases by aryl diesters of peptidyl derivatives of α-aminoalkylphosphonates were measured by the incubation method. An aliquot of inhibitor (25 or 50 μl) in Me2 SO was added to a buffered enzyme solution (0.01-2.3 μM) to initiate the inactivation. Aliquots (50 μl) were withdrawn at various intervals and the residual enzymatic activity was measured. Me2 SO concentration in the reaction mixture was 8-12% (v/v). A 0.1 M HEPES, 0.01 M CaCl2, pH 7.5 buffer was utilized for trypsin and trypsin-like enzymes. A 0.1 M HEPES, 0.5 M NaCl, pH 7.5, was utilized for the other serine proteases. Peptide thioesters or peptide nitroanilides with the appropriate sequences were used as substrates for various serine proteases. All peptide thioesters hydrolysis rates were measured with the assay mixture containing 4,4'-dithiodipyridine {ε324 =19800 M^-1 cm^-1; Grasetti & Murray, Arch. Biochem. Biophys. 1967, 119, 41-48}. Peptide 4-nitroanilide hydrolysis was measured at 410 nm {ε410 =8800 M^-1 cm^-1; Erlanger et al., Arch. Biochem. Biophys. 1961, 95, 271-278}. First order inactivation rate constants (Kobs) were obtained from plots of In vt /vo vs time, and the correlation coefficients were greater then 0.98.
(§2) ^a Inhibition constants were measured in 0.1M Hepes, 0.01M CaCl2
(§3) pH 7.5 for trypsin, granzymes A, and K, and in 0.1M Hepes, 10% glycerol,
(§4) 10 mM heparin, pH 7.5 for mast cell tryptase, and at 25° C. The
(§5) reaction mixtures contained 2% DMSO for trypsin, 7.6% for granzyme A, and
(§6) 7.1% for granzyme K and tryptase. The substrate was Z--Arg--SBzl for
(§7) granzymes and trypsin, and Z--Arg--SBzl or Z--Lys--SBzl for tryptase in
(§8) the presence of DTNB. The inhibitor # concentration ranged from 0.001 to
(§9) ^b NI, no inhibition after 25 min of incubation with enzyme.

human thrombin = molecular target: T2, human thrombin (Homo sapiens, UniProt P00734); details: Table II; 0.07 μM thrombin, 0.25-42 μM inhibitor, 80 mM Hepes pH 7.5, 428 mM NaCl, 8% DMSO, 25° C.; NI = no inhibition
T2 construct: bovine trypsin, human thrombin
Method in brief: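 Irreversible inactivation followed by incubation method at 25 °C: 0.07 μM thrombin with 0.25–42 μM inhibitor in 80 mM Hepes pH 7.5, 428 mM NaCl, 8% DMSO. Residual activity of withdrawn aliquots measured with thioester or 4-nitroanilide substrates; kobs from pseudo-first-order fits.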

bovine trypsin = molecular target: T3, bovine trypsin (Bos taurus, UniProt P00760); experiment: Inactivation rate of bovine trypsin, incubation method; details: for kobsd /[I] bovine trypsin: Table I, 0.1M Hepes, 0.01M CaCl2 pH 7.5, 25° C., 2% DMSO, substrate Z--Arg--SBzl, NI = no inhibition after 25 min; for kobs /[I] bovine trypsin: Table II, 0.13 μM trypsin, 0.25-42 μM inhibitor, 80 mM Hepes pH 7.5, 1 mM CaCl2, 8% DMSO, 25° C., NI = no inhibition
T3 sequence (P00760 24-246): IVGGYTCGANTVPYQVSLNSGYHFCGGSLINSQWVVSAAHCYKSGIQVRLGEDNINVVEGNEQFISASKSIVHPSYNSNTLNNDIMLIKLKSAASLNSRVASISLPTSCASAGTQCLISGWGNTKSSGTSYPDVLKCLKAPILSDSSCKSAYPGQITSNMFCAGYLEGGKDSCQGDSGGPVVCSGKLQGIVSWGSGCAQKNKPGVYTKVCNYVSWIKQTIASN
Method in brief: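 Incubation method: trypsin pre-incubated with inhibitor (0.25-42 μM) at 25° C in 80 mM Hepes, 1 mM CaCl2, pH 7.5, 8% DMSO; aliquots withdrawn over time for residual activity on Z-Arg-SBzl thioester with DTNB or 4,4'-dithiodipyridine. Pseudo-first-order kobs from ln vt/vo versus time.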

rat granzyme K = molecular target: T4, rat granzyme K (Rattus norvegicus, UniProt P49864); experiment: Inactivation rate of rat granzyme K, incubation method; details: Table I; 0.1M Hepes, 0.01M CaCl2 pH 7.5, 25° C., 7.1% DMSO, substrate Z--Arg--SBzl; NI = no inhibition after 25 min of incubation
T4 sequence (P49864 26-258): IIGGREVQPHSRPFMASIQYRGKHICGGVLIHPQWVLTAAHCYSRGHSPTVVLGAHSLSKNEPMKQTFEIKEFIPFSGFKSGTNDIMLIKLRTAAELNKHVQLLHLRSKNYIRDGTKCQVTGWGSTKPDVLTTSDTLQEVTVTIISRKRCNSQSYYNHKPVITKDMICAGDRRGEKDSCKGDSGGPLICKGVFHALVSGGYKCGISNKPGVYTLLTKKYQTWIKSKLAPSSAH
Procedure: as §1, §2, §3, §4, §5, §6, §7, §8, §9

mast cell tryptase, sequence (Q15661 31-275): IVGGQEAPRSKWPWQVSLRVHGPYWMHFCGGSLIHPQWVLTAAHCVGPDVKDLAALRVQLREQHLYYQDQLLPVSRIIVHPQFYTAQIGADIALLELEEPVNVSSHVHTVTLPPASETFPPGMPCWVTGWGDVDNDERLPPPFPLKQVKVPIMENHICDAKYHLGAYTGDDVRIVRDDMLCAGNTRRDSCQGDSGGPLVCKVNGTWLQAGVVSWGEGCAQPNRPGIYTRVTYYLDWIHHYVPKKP

SMILES | kobsd /[I] human granzyme A (human granzyme A) | kobsd /[I] mast cell tryptase (mast cell tryptase; Table I) | kobs /[I] mast cell tryptase (mast cell tryptase; Table II) | kobsd /[I] rat granzyme A (rat granzyme A) | kobs /[I] human thrombin (human thrombin) | kobsd /[I] bovine trypsin (bovine trypsin) | kobs /[I] bovine trypsin (bovine trypsin) | kobsd /[I] rat granzyme K (rat granzyme K) | % Inh mast cell tryptase (mast cell tryptase; Table I, printed in the kobsd/[I] column) | % Inh mast cell tryptase (mast cell tryptase; Table II, printed in the kobs/[I] column)
CC(NC(=O)OCc1ccccc1)C(=O)NC(C)C(=O)NC(C)C(=O)NC(c1ccc(C(=N)N)cc1)P(=O)(Oc1ccccc1)Oc1ccccc1 (mixture of isomers) [Cbz--Ala--Ala--Ala-(4-AmPhGly)^P (OPh)2] | 730 ± 15 M⁻¹ s⁻¹ | 2 M⁻¹ s⁻¹ | 2.0 ± 0.2 M⁻¹ s⁻¹ | 590 ± 17 M⁻¹ s⁻¹ | 1,290 ± 26 M^-1 s^-1 | 1780 ± 33 M⁻¹ s⁻¹ | 1,780 ± 33 M^-1 s^-1 | 7 M⁻¹ s⁻¹ | – | –
N=C(N)c1ccc(C(NC(=O)C(CCCCN)NC(=O)OCc2ccccc2)P(=O)(Oc2ccccc2)Oc2ccccc2)cc1 (mixture of isomers) [Cbz--Lys-(4-AmPhGly)^P (OPh)2] | 30 ± 1 M⁻¹ s⁻¹ | – | – | 15 ± 1 M⁻¹ s⁻¹ | 88 ± 2 M⁻¹ s⁻¹ | 30 ± 1 M⁻¹ s⁻¹ | 30 ± 1 M⁻¹ s⁻¹ | 1 M⁻¹ s⁻¹ | – | –
N=C(N)c1ccc(C(NC(=O)C(Cc2ccccc2)NC(=O)OCc2ccccc2)P(=O)(Oc2ccccc2)Oc2ccccc2)cc1 (mixture of isomers) [Cbz--Phe-(4-AmPhGly)^P (OPh)2] | 14 ± 1 M⁻¹ s⁻¹ | – | – | 8 M⁻¹ s⁻¹ | 20 ± 1 M⁻¹ s⁻¹ | 17 ± 1 M⁻¹ s⁻¹ | 17 ± 1 M⁻¹ s⁻¹ | 13 M⁻¹ s⁻¹ | 5% | 5%
N=C(N)c1ccc(C(NS(=O)(=O)c2cccc3ccccc23)P(=O)(Oc2ccccc2)Oc2ccccc2)cc1 (racemic) [1-NpSO2-(4-AmPhGly)^P (OPh)2] | 330 ± 26 M⁻¹ s⁻¹ | 10 M⁻¹ s⁻¹ | 10 ± 1 M⁻¹ s⁻¹ | 30 ± 1 M⁻¹ s⁻¹ | 24 ± 3 M⁻¹ s⁻¹ | 170 ± 34 M⁻¹ s⁻¹ | 170 ± 34 M⁻¹ s⁻¹ | – | – | –
N=C(N)c1ccc(C(NC(=O)Oc2cccc3ccccc23)P(=O)(Oc2ccccc2)Oc2ccccc2)cc1 (stereo not shown) [1-Naphthyloxycarbonyl-(4-AmPhGly)^P (OPh)2] | 160 ± 2 M⁻¹ s⁻¹ | – | – | 90 ± 9 M⁻¹ s⁻¹ | 30 ± 2 M⁻¹ s⁻¹ | 30 ± 1 M⁻¹ s⁻¹ | 30 ± 1 M⁻¹ s⁻¹ | 12 M⁻¹ s⁻¹ | – | –
Cl.N=C(N)c1ccc(C(NC(=O)c2ccccc2Oc2ccccc2)P(=O)(Oc2ccccc2)Oc2ccccc2)cc1 (stereo not shown) [2-Phenoxybenzoyl-(4-AmPhGly)^P (OPh)2, Diphenyl N-(2-Phenoxybenzoyl)amino(4-amidinophenyl)methanephosphonate Hydrochloride] | 540 ± 3 M⁻¹ s⁻¹ | 0.4 M⁻¹ s⁻¹ | 0.4 M⁻¹ s⁻¹ | 340 ± 1 M⁻¹ s⁻¹ | 270 ± 20 M⁻¹ s⁻¹ | 670 ± 53 M⁻¹ s⁻¹ | 670 ± 53 M⁻¹ s⁻¹ | 1 M⁻¹ s⁻¹ | – | –
Cl.N=C(N)c1ccc(C(NC(=O)c2cccc(Oc3ccccc3)c2)P(=O)(Oc2ccccc2)Oc2ccccc2)cc1 (stereo not shown) [3-Phenoxybenzoyl-(4-AmPhGly)^P (OPh)2, Diphenyl N-(3-Phenoxybenzoyl)amino(4-amidinophenyl)methanephosphonate Hydrochloride] | 340 ± 53 M⁻¹ s⁻¹ | – | – | 470 ± 14 M⁻¹ s⁻¹ | 200 ± 8 M⁻¹ s⁻¹ | 50 ± 2 M⁻¹ s⁻¹ | 50 ± 2 M⁻¹ s⁻¹ | 1 M⁻¹ s⁻¹ | – | –
Cl.N=C(N)c1ccc(C(NC(=O)C=Cc2ccco2)P(=O)(Oc2ccccc2)Oc2ccccc2)cc1 (stereo not shown) [(2-Furyl)acryloyl-(4-AmPhGly)^P (OPh)2, Diphenyl N-(3-(2-Furyl)acryloyl)amino(4-amidinophenyl)methanephosphonate Hydrochloride] | 1740 ± 41 M⁻¹ s⁻¹ | – | – | 1740 ± 237 M⁻¹ s⁻¹ | 15 ± 1 M⁻¹ s⁻¹ | 360 ± 28 M⁻¹ s⁻¹ | 360 ± 28 M⁻¹ s⁻¹ | 32 M⁻¹ s⁻¹ | – | –
C[C@H](NC(=O)OCc1ccccc1)C(=O)N[C@@H](C)C(=O)NC(c1ccc(C(=N)N)cc1)P(=O)(Oc1ccccc1)Oc1ccccc1 (stereo partly shown) [Cbz--Ala--Ala-(4-AmPhGly)^P (OPh)2] | 820 ± 29 M⁻¹ s⁻¹ | 2 M⁻¹ s⁻¹ | 2 ± 0 M⁻¹ s⁻¹ | 480 ± 27 M⁻¹ s⁻¹ | 3,030 ± 222 M^-1 s^-1 | 3620 ± 588 M⁻¹ s⁻¹ | 3,620 ± 588 M^-1 s^-1 | 5 M⁻¹ s⁻¹ | – | –
Cl.N=C(N)c1ccc(C(NC(=O)/C=C/c2cccnc2)P(=O)(Oc2ccccc2)Oc2ccccc2)cc1 (stereo not drawn) [Diphenyl N-(trans-3-(3-Pyridyl)acryloyl)amino(4-amidinophenyl)methanephosphonate Hydrochloride] | 5 M⁻¹ s⁻¹ | – | – | 1 M⁻¹ s⁻¹ | 2 M⁻¹ s⁻¹ | – | – | 3 M⁻¹ s⁻¹ | – | –
